From ChEMBL document CHEMBL3244094, “Nonenolizable podophyllotoxin derivatives” (1977)
The source made the active and inactive calls. The calls are words filed in the database; no cut-off is given here.

What was measured:
P815 = test: Cytotoxicity against mouse P815 cells assessed as concentration required to produce 50% arrest of mitotic activity; type: functional
L5178Y = test: Cytotoxicity against mouse L5178Y cells assessed as concentration required to produce 50% inhibition of cell count in suspension of growing cells; type: functional
TA3 [1] = test: Cytotoxicity against mouse TA3 cells assessed as concentration required to produce 50% decrease in protein production; type: functional
TLX-5 = test: Anticancer activity against mouse TLX5 cells allografted in mouse; type: functional, cell-based
L1210 = test: Anticancer activity against mouse L1210 cells allografted in mouse; type: functional, cell-based
TA3 [2] = test: Anticancer activity against mouse TA3 cells allografted in mouse; type: functional, cell-based
Gallus gallus [3] = species on record: Gallus gallus; test: Competitive binding affinity to tubulin in chick embryo brain by radioactive colchicine displacement assay; type: tissue-based
Gallus gallus [4] = species on record: Gallus gallus; test: Inhibition of tubulin in chick brain assessed as concentration required to inhibit microtubule formation by 50%
Gallus gallus [5] = species on record: Gallus gallus; test: Competitive binding affinity to tubulin in chick embryo brain by radioactive colchicine displacement assay relative to podophyllotoxin
Gallus gallus [6] = species on record: Gallus gallus; test: Inhibition of tubulin in chick brain assessed as concentration required to inhibit microtubule formation by 50% relative to podophyllotoxin; details: concentration not given here
Caelifera = test: Competitive binding affinity to tubulin in grasshopper embryo by radioactive colchicine displacement assay
[7] = In vivo inhibition of microtubule assembly in Stentor coeruleus assessed as minimum concentration required to delay regeneration of ciliated oral apparatus by […] analysis; type: functional
[8] = In vivo inhibition of microtubule assembly in Stentor coeruleus assessed as minimum concentration required to delay regeneration of ciliated oral apparatus by […] analysis relative to podophyllotoxin; type: functional

SMILES	Activity (P815) [×10⁻⁷ M]	Activity (L5178Y) [×10⁻⁷ M]	Activity (TA3 [1]) [×10⁻⁷ M]	Activity (TLX-5)	Activity (L1210)	Activity (TA3 [2])	KA (Gallus gallus [3]) [×10⁶ L/mol]	Activity (Gallus gallus [4]) [×10⁻⁷ M]	Activity (Gallus gallus [5]) [%]	inhibition (Gallus gallus [6]) [%]	Activity (Gallus gallus [3])	KA (Caelifera) [×10⁶ L/mol]	MEC [7] [µM]	inhibition (INH) [8] [%]
COc1cc([C@H]2c3cc4c(cc3C[C@H]3COC[C@@H]32)OCO4)cc(OC)c1OC	0.52	1.4	6	inactive	inactive	inactive	0.4	8	20	75				
COc1cc([C@H]2c3cc4c(cc3[C@@H](O)[C@H]3CSC[C@H]23)OCO4)cc(OC)c1OC	4.3	14	60					100			Active			
COc1cc([C@H]2c3cc4c(cc3C[C@H]3CSC[C@@H]32)OCO4)cc(OC)c1OC	6	15	50					100			Active			
COc1cc([C@H]2c3cc4c(cc3C[C@H]3COC(=O)[C@H]32)OCO4)cc(OC)c1OC [ISOPICRODEOXYPODOPHYLLOTOXIN]	1.3													
COc1cc([C@H]2c3cc4c(cc3C[C@H]3COC(=O)[C@@H]32)OCO4)cc(OC)c1OC	0.05						2							
COc1cc([C@H]2c3cc4c(cc3[C@@H](O)[C@H]3CS(=O)(=O)C[C@H]23)OCO4)cc(OC)c1OC	>220	>220	>100					> 1000			Active			
COc1cc([C@H]2c3cc4c(cc3[C@@H](O)[C@H]3COC(=O)[C@@H]23)OCO4)cc(OC)c1OC	1.9											0.037		
COc1cc([C@H]2c3cc4c(cc3[C@@H](O)[C@H]3COC[C@H]23)OCO4)cc(OC)c1OC	0.59	1.3	6	inactive	inactive	inactive	0.2	10	13	60			20	20
COc1cc([C@H]2c3cc4c(cc3C[C@H]3CC(=O)C[C@@H]32)OCO4)cc(OC)c1OC	1	15	15				0.02	50						
COc1cc([C@H]2c3cc4c(cc3[C@@H](O)[C@H]3COC(=O)[C@H]23)OCO4)cc(OC)c1OC	0.12	0.14	3	inactive	inactive	inactive	2	6					4	
COc1cc([C@H]2c3cc4c(cc3C[C@H]3CS(=O)(=O)C[C@@H]32)OCO4)cc(OC)c1OC	69	139	>100					> 500			Active			
COc1cc([C@H]2c3cc4c(cc3C[C@H]3CCC[C@@H]32)OCO4)cc(OC)c1OC	6.5	16	50				0.02	50						
